In patent US20030086928A1, “Compositions associated with complex formation and methods of use thereof” (priority 2000, published 2003):

Tests used:
[1] = system: somatostatin mRNA in D5 cells; assay: Northern blot of somatostatin mRNA in D5 cells; type: cell-based, rat; details: 4 hours
Description: In addition to cAMP, other stimuli such as the phorbol ester TPA can promote Ser133 phosphorylation of CREB; yet these stimuli are unable to induce target gene activation via CBP, reflecting either a block in CREB:CBP complex formation or in the subsequent recruitment of the transcriptional apparatus. To evaluate formation of CREB:CBP complexes in vivo, NIH 3T3 cells expressing chromosomal copies of the rat somatostatin gene, hereafter referred to as D5 cells (Montminy et al. (1986) J Neurosci 6:803-813) were used. […] Western blot assays of total CREB and phospho (Ser133) CREB (P-CREB) levels were performed in control (C) or treated D5 cells exposed to either forskolin (F) or TPA (T) for 30 minutes. Northern blot assays were then performed to detect somatostatin (SOM) and tubulin (TUB) mRNA levels in control D5 cells (C) and in D5 cells treated with forskolin (F) or TPA (T) for 4 hours.

[2] = system: phospho (Ser133) CREB in D5 cells; assay: Ser133 phosphorylation of CREB in D5 cells (Western blot / immunofluorescence with antiserum 5322); type: cell-based
Experimental: (§1) D5 cells were grown on glass coverslips and stimulated with forskolin and 3-isobutyl-1-methylxanthine (IBMX) or 12-O-tetradecanoyl phorbol acetate (TPA) for 10 minutes. The cells were methanol-fixed at […] for 5 min followed by three 5 min washes in PBS. Cells were blocked for 30 min with 3% BSA in PBS and donkey serum diluted 1:50. Primary antibodies were diluted in 3% BSA/PBS to 1:2000 for the phospho-CREB specific antibody 5322 or 1:100 (3 μg/ml) for the KID/KIX specific antibody. The cells were incubated with the primary antibodies for 1 hr at RT, followed by 3 washes with PBS and a 1 hr incubation with Biotin-SP-conjugated Donkey anti rabbit IgG diluted 1:200 in 3% BSA/PBS. After 3 washes in PBS, Texas Red conjugated Streptavidin was added at 1:200 dilution in 3% BSA/PBS. After one hour incubation, cells were washed 3 times in PBS and mounted in 90% glycerol/PBS containing 1 mg/ml phenylenediamine.
In addition to cAMP, other stimuli such as the phorbol ester TPA can promote Ser133 phosphorylation of CREB; yet these stimuli are unable to induce target gene activation via CBP, reflecting either a block in CREB:CBP complex formation or in the subsequent recruitment of the transcriptional apparatus. […]

[3] = system: T1, CREB:CBP complexes in D5 cells; assay: Immunofluorescence of CREB:CBP complexes in D5 cells with αKK antiserum; type: cell-based; details: 10 minutes
T1 construct: endogenous in cells; host or cells: D5 cells (NIH 3T3 with rat somatostatin gene)
Experimental: as §1
D5 cells were then treated with forskolin or TPA for 10 minutes.

T1 sequence (Q01147 whole entry): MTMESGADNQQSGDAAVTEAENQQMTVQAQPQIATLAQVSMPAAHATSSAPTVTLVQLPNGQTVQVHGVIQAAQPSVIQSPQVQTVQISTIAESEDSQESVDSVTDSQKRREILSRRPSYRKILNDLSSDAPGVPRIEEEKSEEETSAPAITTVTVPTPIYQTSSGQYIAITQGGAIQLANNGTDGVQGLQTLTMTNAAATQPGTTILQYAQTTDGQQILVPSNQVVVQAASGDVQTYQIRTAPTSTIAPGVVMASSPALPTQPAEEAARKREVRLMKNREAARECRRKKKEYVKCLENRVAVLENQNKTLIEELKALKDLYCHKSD
T1 sequence (P45481 2-2441 limits assumed, further chain): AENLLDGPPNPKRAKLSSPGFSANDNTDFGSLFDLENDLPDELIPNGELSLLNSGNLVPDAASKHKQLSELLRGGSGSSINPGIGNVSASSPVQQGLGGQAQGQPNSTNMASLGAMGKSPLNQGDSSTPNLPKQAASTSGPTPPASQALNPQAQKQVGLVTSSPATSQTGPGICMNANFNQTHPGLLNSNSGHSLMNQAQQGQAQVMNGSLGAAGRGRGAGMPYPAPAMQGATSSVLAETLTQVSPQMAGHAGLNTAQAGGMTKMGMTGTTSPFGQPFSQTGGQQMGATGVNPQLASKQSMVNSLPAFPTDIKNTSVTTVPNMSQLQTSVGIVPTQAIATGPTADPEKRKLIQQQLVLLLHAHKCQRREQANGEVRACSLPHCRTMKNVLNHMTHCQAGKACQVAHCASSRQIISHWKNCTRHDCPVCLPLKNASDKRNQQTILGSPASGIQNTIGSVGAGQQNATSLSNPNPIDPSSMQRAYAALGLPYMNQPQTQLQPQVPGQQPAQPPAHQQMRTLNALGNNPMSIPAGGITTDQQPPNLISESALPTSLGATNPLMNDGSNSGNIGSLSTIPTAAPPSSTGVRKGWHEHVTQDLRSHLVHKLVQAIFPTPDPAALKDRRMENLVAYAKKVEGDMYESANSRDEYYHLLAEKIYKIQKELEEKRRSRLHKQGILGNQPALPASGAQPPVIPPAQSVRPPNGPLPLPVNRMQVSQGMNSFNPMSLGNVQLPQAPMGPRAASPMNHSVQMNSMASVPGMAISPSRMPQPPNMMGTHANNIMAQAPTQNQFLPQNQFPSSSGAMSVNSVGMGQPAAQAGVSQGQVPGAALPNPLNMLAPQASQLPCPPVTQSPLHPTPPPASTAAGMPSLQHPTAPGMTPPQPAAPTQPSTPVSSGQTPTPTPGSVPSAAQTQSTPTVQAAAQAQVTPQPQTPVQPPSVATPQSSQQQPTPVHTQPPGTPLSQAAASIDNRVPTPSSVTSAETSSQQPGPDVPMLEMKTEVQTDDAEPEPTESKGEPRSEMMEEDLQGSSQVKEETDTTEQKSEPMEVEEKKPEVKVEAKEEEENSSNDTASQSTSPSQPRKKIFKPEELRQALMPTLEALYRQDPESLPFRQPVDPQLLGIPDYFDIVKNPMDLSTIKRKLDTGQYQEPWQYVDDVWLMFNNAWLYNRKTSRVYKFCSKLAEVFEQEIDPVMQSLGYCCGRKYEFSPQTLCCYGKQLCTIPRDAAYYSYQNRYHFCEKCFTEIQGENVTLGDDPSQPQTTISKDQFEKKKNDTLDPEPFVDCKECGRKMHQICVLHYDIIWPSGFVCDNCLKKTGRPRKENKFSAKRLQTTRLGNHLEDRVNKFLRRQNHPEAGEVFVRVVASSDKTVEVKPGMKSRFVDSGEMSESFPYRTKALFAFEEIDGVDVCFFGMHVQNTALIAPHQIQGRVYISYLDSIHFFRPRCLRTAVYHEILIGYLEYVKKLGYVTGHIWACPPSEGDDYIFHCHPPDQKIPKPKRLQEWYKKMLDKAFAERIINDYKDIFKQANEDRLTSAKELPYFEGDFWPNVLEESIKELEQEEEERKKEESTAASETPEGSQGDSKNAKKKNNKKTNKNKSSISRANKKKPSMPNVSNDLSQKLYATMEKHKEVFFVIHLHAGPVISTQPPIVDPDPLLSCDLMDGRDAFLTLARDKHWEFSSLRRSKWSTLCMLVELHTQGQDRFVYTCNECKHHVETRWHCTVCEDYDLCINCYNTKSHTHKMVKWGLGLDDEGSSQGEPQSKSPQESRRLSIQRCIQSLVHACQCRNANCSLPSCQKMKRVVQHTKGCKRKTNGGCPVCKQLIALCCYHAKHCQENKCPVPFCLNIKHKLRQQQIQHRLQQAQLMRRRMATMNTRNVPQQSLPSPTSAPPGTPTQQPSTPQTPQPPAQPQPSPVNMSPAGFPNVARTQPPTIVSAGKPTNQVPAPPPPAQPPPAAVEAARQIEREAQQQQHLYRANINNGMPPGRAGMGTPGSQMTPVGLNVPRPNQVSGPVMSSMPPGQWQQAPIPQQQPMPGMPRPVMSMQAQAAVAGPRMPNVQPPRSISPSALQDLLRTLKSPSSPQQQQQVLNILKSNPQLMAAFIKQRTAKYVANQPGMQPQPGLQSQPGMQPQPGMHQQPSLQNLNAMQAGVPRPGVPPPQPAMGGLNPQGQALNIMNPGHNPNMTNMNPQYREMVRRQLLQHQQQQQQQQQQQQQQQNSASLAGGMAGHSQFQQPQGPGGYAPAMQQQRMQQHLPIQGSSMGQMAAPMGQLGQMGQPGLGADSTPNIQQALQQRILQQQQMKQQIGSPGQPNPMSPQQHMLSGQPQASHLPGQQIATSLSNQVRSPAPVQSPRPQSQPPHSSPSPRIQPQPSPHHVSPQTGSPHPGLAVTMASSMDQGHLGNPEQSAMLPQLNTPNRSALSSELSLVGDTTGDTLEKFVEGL

| Structure (SMILES) | somatostatin mRNA accumulation [1] | accumulation of phospho (Ser133) CREB ([2]; 10 minutes, immunofluorescence) | Ser133 phosphorylation of CREB ([2]; 30 minutes, Western blot with antiserum 5322) | CREB:CBP complex formation detected with αKK antiserum [3] |
| --- | --- | --- | --- | --- |
| C=C[C@@]1(C)CC(=O)[C@]2(O)[C@@]3(C)[C@@H](O)CCC(C)(C)[C@@H]3[C@H](O)[C@H](OC(C)=O)[C@@]2(C)O1 [forskolin] | 5 fold |  |  |  |
| CCCCCCCCCCCCCC(=O)O[C@@H]1[C@@H](C)[C@@]2(O)[C@@H](C=C(CO)C[C@]3(O)C(=O)C(C)=C[C@@H]23)[C@@H]2C(C)(C)[C@]12OC(C)=O [TPA, 12-O-tetradecanoyl phorbol acetate] | no discernible effect | comparable levels of Ser133 phosphorylation | induced Ser133 phosphorylation of CREB with comparable stoichiometry to forskolin induction | no CREB:CBP complexes were detected |
